# Data taken from patent publication US9169254B2, “Spiroimidazolone derivative” (Chugai Seiyaku Kabushiki Kaisha, priority 2009, dated 2015).
# Target: T1, human PTH1 receptor (Homo sapiens, UniProt Q03431)
# T1 sequence (Q03431 27-593): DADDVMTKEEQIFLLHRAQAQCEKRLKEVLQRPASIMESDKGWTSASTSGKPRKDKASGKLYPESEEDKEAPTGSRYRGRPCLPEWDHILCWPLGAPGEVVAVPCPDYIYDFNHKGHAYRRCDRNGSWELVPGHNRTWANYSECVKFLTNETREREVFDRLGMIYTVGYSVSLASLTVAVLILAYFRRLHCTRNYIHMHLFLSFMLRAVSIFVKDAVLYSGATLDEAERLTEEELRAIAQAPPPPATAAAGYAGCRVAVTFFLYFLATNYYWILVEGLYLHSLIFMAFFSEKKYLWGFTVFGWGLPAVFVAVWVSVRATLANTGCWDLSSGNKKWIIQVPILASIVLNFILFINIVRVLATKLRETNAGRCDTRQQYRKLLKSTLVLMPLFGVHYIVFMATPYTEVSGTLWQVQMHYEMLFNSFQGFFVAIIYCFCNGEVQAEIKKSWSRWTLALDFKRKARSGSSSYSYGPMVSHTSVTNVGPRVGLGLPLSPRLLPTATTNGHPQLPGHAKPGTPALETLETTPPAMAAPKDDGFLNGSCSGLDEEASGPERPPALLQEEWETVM
# Assay: In vitro cAMP signal activity in HKRK-B7 cells (LLC-PK1 cells overexpressing the human PTH1 receptor)
# Format: cell-based
# Details: HKRK-B7 cells; compound at 1×10^−3 M; cAMP produced as percentage of that produced by hPTH(1-34) at 100 nM
row,cAMP production activity (%),Structure (SMILES)
1,55,"O=C1NC(C2CCCCC2)=NC12CCN(S(=O)(=O)CCc1cccc3c1CCCN3)CC2 [Compound 645, 2-Cyclohexyl-8-[2-(1,2,3,4-tetrahydro-quinolin-5-yl)-ethanesulfonyl]-1,3,8-triaza-spiro[4.5]dec-1-en-4-one]"
2,99,"N#Cc1c[nH]c2cccc(CCS(=O)(=O)N3CCC4(CC3)N=C(C3CCCCC3)NC4=O)c12 [Compound 646, 4-[2-(2-cyclohexyl-4-oxo-1,3,8-triaza-spiro[4.5]dec-1-ene-8-sulfonyl)-ethyl]-1H-indole-3-carbonitrile]"
3,104,"CN(C)C(=O)n1ccc2cccc(CCS(=O)(=O)N3CCC4(CC3)N=C(C3CCCCC3)NC4=O)c21 [Compound 647, 7-[2-(2-cyclohexyl-4-oxo-1,3,8-triaza-spiro[4.5]dec-1-ene-8-sulfonyl)-ethyl]-indole-1-carboxylic acid dimethylamide]"
4,61,"O=C1NC(C2CCCCC2)=NC12CCN(S(=O)(=O)CCc1cccc3ncccc13)CC2 [Compound 648, 2-cyclohexyl-8-(2-quinolin-5-yl-ethanesulfonyl)-1,3,8-triaza-spiro[4.5]dec-1-en-4-one]"
5,40,"O=C(c1c[nH]c2cccc(CCS(=O)(=O)N3CCC4(CC3)N=C(C3CCCCC3)NC4=O)c12)C(F)(F)F [Compound 649, 2-cyclohexyl-8-{2-[3-(2,2,2-trifluoro-acetyl)-1H-indol-4-yl]-ethanesulfonyl}-1,3,8-triaza-spiro[4.5]dec-1-en-4-one]"
6,55,"CC(C)n1ccc2c(CCS(=O)(=O)N3CCC4(CC3)N=C(C3CCCCC3)NC4=O)cccc21 [Compound 650, 2-cyclohexyl-8-[2-(1-isopropyl-1H-indol-4-yl)-ethanesulfonyl]-1,3,8-triaza-spiro[4.5]dec-1-en-4-one]"
7,54,"O=C1NC(C2CCCCC2)=NC12CCN(S(=O)(=O)CCc1cccc3c1ccn3CCCCO)CC2 [Compound 651, 2-cyclohexyl-8-{2-[1-(4-hydroxy-butyl)-1H-indol-4-yl]-ethanesulfonyl}-1,3,8-triaza-spiro[4.5]dec-1-en-4-one]"
8,63,"CC(=O)Nc1ccc(CCS(=O)(=O)N2CCC3(CC2)N=C(C2CCCCC2)NC3=O)c(C#N)c1 [Compound 652, N-{3-cyano-4-[2-(2-cyclohexyl-4-oxo-1,3,8-triaza-spiro[4.5]dec-1-ene-8-sulfonyl)-ethyl]-phenyl}-acetamide]"
9,67,"O=C1NC(c2cccc(OC(F)(F)F)c2)=NC12CCN(S(=O)(=O)CCc1cccc3cnccc13)CC2 [Compound 653, 8-(2-Isoquinolin-5-yl-ethanesulfonyl)-2-(3-trifluoromethoxy-phenyl)-1,3,8-triaza-spiro[4.5]dec-1-en-4-one]"
10,50,"O=C1NC(c2cccc(OC(F)(F)F)c2)=NC12CCN(S(=O)(=O)CCc1cccc3ncccc13)CC2 [Compound 654, 8-(2-quinolin-5-yl-ethanesulfonyl)-2-(3-trifluoromethoxy-phenyl)-1,3,8-triaza-spiro[4.5]dec-1-en-4-one]"
11,74,"COc1cc(NC(C)=O)ccc1CCS(=O)(=O)N1CCC2(CC1)N=C(C1CCC(C)CC1)NC2=O (stereo not shown) [Compound 655, N-(3-Methoxy-4-{2-[2-(4-methyl-cyclohexyl)-4-oxo-1,3,8-triaza-spiro[4.5]dec-1-ene-8-sulfonyl]-ethyl}-phenyl)-acetamide]"

# Continued, compound first:
row,Structure (SMILES),cAMP production activity (%)
1,"CCCCC1CCC(C2=NC3(CCN(S(=O)(=O)/C=C/c4c(C)cc(N5C(=O)CNC5=O)cc4C)CC3)C(=O)N2)CC1 (stereo not shown) [Compound 631, 3-(4-{(E)-2-[2-(4-Butyl-cyclohexyl)-4-oxo-1,3,8-triaza-spiro[4.5]dec-1-ene-8-sulfonyl]-vinyl}-3,5-dimethyl-phenyl)-imidazolidine-2,4-dione]",65
2,"CCCC[C@H]1CC[C@H](C2=NC3(CCN(S(=O)(=O)/C=C/c4c(C)cc(N(CC5(C)COC5)C(C)=O)cc4C)CC3)C(=O)N2)CC1 [Compound 632, N-(4-{(E)-2-[2-(4-butyl-cyclohexyl)-4-oxo-1,3,8-triaza-spiro[4.5]dec-1-ene-8-sulfonyl]-vinyl}-3,5-dimethyl-phenyl)-N-(3-methyl-oxetan-3-ylmethyl)-acetamide]",51
3,"O=C1NC(C2CCCCC2)=NC12CCN(S(=O)(=O)/C=C/c1cccc3cccnc13)CC2 [Compound 633, 2-Cyclohexyl-8-((E)-2-quinolin-8-yl-ethenesulfonyl)-1,3,8-triaza-spiro[4.5]dec-1-en-4-one]",37
4,"O=C1Cc2c(/C=C/S(=O)(=O)N3CCC4(CC3)N=C(C3CCCCC3)NC4=O)cccc2N1 [Compound 634, 2-cyclohexyl-8-[(E)-2-(2-oxo-2,3-dihydro-1H-indol-4-yl)-ethenesulfonyl]-1,3,8-triaza-spiro[4.5]dec-1-en-4-one]",29
5,"Cc1cc(N2C(=O)CNC2=O)cc(C)c1/C=C/S(=O)(=O)N1CCC2(CC1)N=C(c1cccc(OC(F)(F)F)c1)NC2=O [Compound 635, 3-(3,5-Dimethyl-4-{(E)-2-[4-oxo-2-(3-trifluoromethoxy-phenyl)-1,3,8-triaza-spiro[4.5]dec-1-ene-8-sulfonyl]-vinyl}-phenyl)-imidazolidine-2,4-dione]",93
6,"Cc1cc(N2C(=O)CNC2=O)cc(C)c1/C=C/S(=O)(=O)N1CCC2(CC1)N=C(c1ccc(F)c(C(F)(F)F)c1)NC2=O [Compound 636, 3-(4-{(E)-2-[2-(4-Fluoro-3-trifluoromethyl-phenyl)-4-oxo-1,3,8-triaza-spiro[4.5]dec-1-ene-8-sulfonyl]-vinyl}-3,5-dimethyl-phenyl)-imidazolidine-2,4-dione]",88
7,"Cc1cc2c(/C=C/S(=O)(=O)N3CCC4(CC3)N=C(C3CCCCC3)NC4=O)cccc2[nH]1 [Compound 637, 2-Cyclohexyl-8-[(E)-2-(2-methyl-1H-indol-4-yl)-ethenesulfonyl]-1,3,8-triaza-spiro[4.5]dec-1-en-4-one]",38
8,"CN1CCCc2c(/C=C/S(=O)(=O)N3CCC4(CC3)N=C(C3CCCCC3)NC4=O)cccc21 [Compound 638, 2-cyclohexyl-8-[(E)-2-(1-methyl-1,2,3,4-tetrahydro-quinolin-5-yl)-ethenesulfonyl]-1,3,8-triaza-spiro[4.5]dec-1-en-4-one]",46
9,"Cc1cc(OCCC(O)CO)cc(C)c1/C=C/S(=O)(=O)N1CCC2(CC1)N=C(c1ccc(F)c(C(F)(F)F)c1)NC2=O (stereo not shown) [Compound 639, 8-{(E)-2-[4-(3,4-Dihydroxy-butoxy)-2,6-dimethyl-phenyl]-ethenesulfonyl}-2-(4-fluoro-3-trifluoromethyl-phenyl)-1,3,8-triaza-spiro[4.5]dec-1-en-4-one]",101
10,"[2H]C([2H])([2H])N(C(=O)OC(C)(C)C)c1cc(C)c(/C=C/S(=O)(=O)N2CCC3(CC2)N=C(c2ccc(F)c(C(F)(F)F)c2)NC3=O)c(C)c1 [Compound 640, (4-{(E)-2-[2-(4-fluoro-3-trifluoromethyl-phenyl)-4-oxo-1,3,8-triaza-spiro[4.5]dec-1-ene-8-sulfonyl]-vinyl}-3,5-dimethyl-phenyl)-[1,1,1-^2H3]methyl-carbamic acid tert-butyl ester]",26
11,"Cc1cc(C(=O)N2CCC(O)(CF)CC2)cc(C)c1/C=C/S(=O)(=O)N1CCC2(CC1)N=C(c1ccc(F)c(C(F)(F)F)c1)NC2=O [Compound 641, 8-{(E)-2-[4-(4-fluoromethyl-4-hydroxy-piperidine-1-carbonyl)-2,6-dimethyl-phenyl]-ethenesulfonyl}-2-(4-fluoro-3-trifluoromethyl-phenyl)-1,3,8-triaza-spiro[4.5]dec-1-en-4-one]",85
12,"Cc1cc(C(=O)N2CCC(C)(O)CC2)cc(C)c1/C=C/S(=O)(=O)N1CCC2(CC1)N=C(c1ccc(F)c(C(F)(F)F)c1)NC2=O [Compound 642, 2-(4-fluoro-3-trifluoromethyl-phenyl)-8-{(E)-2-[4-(4-hydroxy-4-methyl-piperidine-1-carbonyl)-2,6-dimethyl-phenyl]-ethenesulfonyl}-1,3,8-triaza-spiro[4.5]dec-1-en-4-one]",87
13,"O=C1NC(c2ccc(F)c(C(F)(F)F)c2)=NC12CCN(S(=O)(=O)/C=C/c1cccc3c1ccn3C[C@H](O)CO)CC2 [Compound 643, 8-{(E)-2-[1-((S)-2,3-dihydroxy-propyl)-1H-indol-4-yl]-ethenesulfonyl}-2-(4-fluoro-3-trifluoromethyl-phenyl)-1,3,8-triaza-spiro[4.5]dec-1-en-4-one]",94
14,"Cc1cc(C(=O)N2CCC3(CC2)COC3)cc(C)c1/C=C/S(=O)(=O)N1CCC2(CC1)N=C(c1ccc(F)c(C(F)(F)F)c1)NC2=O [Compound 644, 8-{(E)-2-[2,6-dimethyl-4-(2-oxa-7-aza-spiro[3.5]nonane-7-carbonyl)-phenyl]-ethenesulfonyl}-2-(4-fluoro-3-trifluoromethyl-phenyl)-1,3,8-triaza-spiro[4.5]dec-1-en-4-one]",75
